Results taken from patent US20230085307A1, “PYRIDAZINONE COMPOUND AND HERBICIDE” (NISSAN CHEMICAL CORPORATION, priority 2019, published 2023).

Key:
barnyard grass = assay: Test Example 3: herbicidal effect by foliage application, Wagner pot (Table 18, symbol H); type: in vivo, barnyard grass (Echinochloa crus-galli)
Method: (§1) [Test Example 3] Herbicidal Effect Test by Foliage Application After alluvial soil was placed into 1/10000 are of Wagner pot, water was poured and mixed to form a submerged condition having a water depth of 0.1 cm to 0.5 cm. Seeds of barnyard grass, Chinese sprangletop, rice flat sedge, and rice were sowed and the pot was placed in a greenhouse at 25° C. to 30° C. for growth of the plants. After 14-day growth of the plants, the emulsion agent of the compound of the present invention prepared according to Formulation Example 2 was diluted with water so as to achieve a predetermined herbicide amount, and the diluted emulsion agent was uniformly applied to a foliage part with a small-sized spray. Three weeks after the herbicide application, the effect of the herbicide on each plant was evaluated according to the criteria of Test Example 1.

Chinese sprangletop = assay: Test Example 3: herbicidal effect by foliage application, Wagner pot (Table 18, symbol D); type: in vivo, chinese sprangletop (Leptochloa chinensis)
Method: as §1

rice flat sedge = assay: Test Example 3: herbicidal effect by foliage application, Wagner pot (Table 18, symbol E); type: in vivo, rice flat sedge (Cyperus iria)
Method: as §1

[1] = amount of applied herbicide 320 g/ha
[2] = amount of applied herbicide 101 g/ha
[3] = amount of applied herbicide 125 g/ha

CCCC(=O)Oc1c(C)nn(C)c(=O)c1-c1c(-c2ccc(OC)nc2OC)sc2ccccc12 [1-080]
herbicidal effect on H (barnyard grass), rating 0-5 (barnyard grass; 320 g/ha): 0 (Herbicidal rate of 5% or less (almost no effect)) | herbicidal effect on D (Chinese sprangletop), rating 0-5 (Chinese sprangletop; 320 g/ha): 0 (Herbicidal rate of 5% or less (almost no effect)) | herbicidal effect on E (rice flat sedge), rating 0-5 (rice flat sedge; 320 g/ha): 4 (Herbicidal rate of 70% or more and less than 90%)

COc1nn(C)c(=O)c(-c2c(-c3ccc(Oc4ccccc4)cc3)sc3ccccc23)c1O [1-164]
herbicidal effect on H (barnyard grass), rating 0-5 (barnyard grass; 80 g/ha): 4 (Herbicidal rate of 70% or more and less than 90%) | herbicidal effect on D (Chinese sprangletop), rating 0-5 (Chinese sprangletop; 80 g/ha): 4 (Herbicidal rate of 70% or more and less than 90%) | herbicidal effect on E (rice flat sedge), rating 0-5 (rice flat sedge; 80 g/ha): 4 (Herbicidal rate of 70% or more and less than 90%)

CCCC(=O)Oc1c(OC)nn(C)c(=O)c1-c1c(-c2ccoc2)sc2ccccc12 [1-191]
herbicidal effect on H (barnyard grass), rating 0-5 (barnyard grass; 80 g/ha): 2 (Herbicidal rate of 20% or more and less than 40%) | herbicidal effect on D (Chinese sprangletop), rating 0-5 (Chinese sprangletop; 80 g/ha): 5 (Herbicidal rate of 90% or more (almost completely withered)) | herbicidal effect on E (rice flat sedge), rating 0-5 (rice flat sedge; 80 g/ha): 4 (Herbicidal rate of 70% or more and less than 90%)

Cc1ccc2sc(-c3ccc4ccccc4c3)c(-c3c(O)c(C)nn(C)c3=O)c2c1 [2-154]
herbicidal effect on H: barnyard grass (barnyard grass; [1]): 3 (Herbicidal rate of 40% or more and less than 70%) | herbicidal effect on D: Chinese sprangletop (Chinese sprangletop; [1]): 0 (Herbicidal rate of 5% or less (almost no effect)) | herbicidal effect on E: rice flat sedge (rice flat sedge; [1]): 3 (Herbicidal rate of 40% or more and less than 70%)

CCCC(=O)Oc1c(C)nn(C)c(=O)c1-c1c(-c2cc(C(F)(F)F)cc(C(F)(F)F)c2)sc2ccc(F)cc12 [2-359]
herbicidal effect on H: barnyard grass (barnyard grass; [1]): 3 (Herbicidal rate of 40% or more and less than 70%) | herbicidal effect on D: Chinese sprangletop (Chinese sprangletop; [1]): 5 (Herbicidal rate of 90% or more (almost completely withered)) | herbicidal effect on E: rice flat sedge (rice flat sedge; [1]): 3 (Herbicidal rate of 40% or more and less than 70%)

COc1cc(F)ccc1-c1sc2ccc(S(C)(=O)=O)cc2c1-c1c(O)c(C)nn(C)c1=O [2-377]
herbicidal effect on H: barnyard grass (barnyard grass; [2]): 4 (Herbicidal rate of 70% or more and less than 90%) | herbicidal effect on D: Chinese sprangletop (Chinese sprangletop; [2]): 3 (Herbicidal rate of 40% or more and less than 70%) | herbicidal effect on E: rice flat sedge (rice flat sedge; [2]): 3 (Herbicidal rate of 40% or more and less than 70%)

CCn1nc(C)c(O)c(-c2c(-c3ccc(Cl)cc3)sc3ccc(F)cc23)c1=O [2-400]
herbicidal effect on D: Chinese sprangletop (Chinese sprangletop; [1]): 5 (Herbicidal rate of 90% or more (almost completely withered)) | herbicidal effect on E: rice flat sedge (rice flat sedge; [1]): 5 (Herbicidal rate of 90% or more (almost completely withered))

Cc1n[nH]c(=O)c(-c2c(-c3ccc(F)cc3)sc3ccc(F)cc23)c1O [2-428]
herbicidal effect on H: barnyard grass (barnyard grass; [3]): 4 (Herbicidal rate of 70% or more and less than 90%) | herbicidal effect on D: Chinese sprangletop (Chinese sprangletop; [3]): 0 (Herbicidal rate of 5% or less (almost no effect)) | herbicidal effect on E: rice flat sedge (rice flat sedge; [3]): 0 (Herbicidal rate of 5% or less (almost no effect))

Cc1nn(Cc2ccccc2)c(=O)c(-c2c(-c3ccc(Cl)cc3)sc3ccc(F)cc23)c1O [2-434]
herbicidal effect on H: barnyard grass (barnyard grass; [1]): 2 (Herbicidal rate of 20% or more and less than 40%) | herbicidal effect on E: rice flat sedge (rice flat sedge; [1]): 2 (Herbicidal rate of 20% or more and less than 40%)

Cc1nn(C)c(=O)c(-c2c(-c3ccc(OC(F)F)cc3)sc3c(C)cccc23)c1O [4-128]
herbicidal effect on barnyard grass (H) (barnyard grass; 320 g/ha): 3 (Herbicidal rate of 40% or more and less than 70%) | herbicidal effect on Chinese sprangletop (D) (Chinese sprangletop; 320 g/ha): 0 (Herbicidal rate of 5% or less (almost no effect)) | herbicidal effect on rice flat sedge (E) (rice flat sedge; 320 g/ha): 5 (Herbicidal rate of 90% or more (almost completely withered))

Cc1nn(C)c(=O)c(-c2c(-c3ccc(C(=O)O)cc3)sc3cc(F)c(F)cc23)c1O [5-027]
herbicidal effect on barnyard grass (H) (barnyard grass; 320 g/ha): 3 (Herbicidal rate of 40% or more and less than 70%) | herbicidal effect on Chinese sprangletop (D) (Chinese sprangletop; 320 g/ha): 0 (Herbicidal rate of 5% or less (almost no effect)) | herbicidal effect on rice flat sedge (E) (rice flat sedge; 320 g/ha): 0 (Herbicidal rate of 5% or less (almost no effect))

CCOc1cc(F)ccc1-c1cc2c(-c3c(O)c(C)nn(C)c3=O)c(-c3ccc(F)cc3OCC)sc2cc1OC [5-081]
herbicidal effect on barnyard grass (H) (barnyard grass; 320 g/ha): 2 (Herbicidal rate of 20% or more and less than 40%) | herbicidal effect on Chinese sprangletop (D) (Chinese sprangletop; 320 g/ha): 2 (Herbicidal rate of 20% or more and less than 40%) | herbicidal effect on rice flat sedge (E) (rice flat sedge; 320 g/ha): 0 (Herbicidal rate of 5% or less (almost no effect))

Cc1cc2sc(-c3ccc(C(F)(F)F)cc3)c(-c3c(O)c(C)nn(C)c3=O)c2cc1C [5-096]
herbicidal effect on barnyard grass (H) (barnyard grass; 320 g/ha): 3 (Herbicidal rate of 40% or more and less than 70%) | herbicidal effect on Chinese sprangletop (D) (Chinese sprangletop; 320 g/ha): 2 (Herbicidal rate of 20% or more and less than 40%) | herbicidal effect on rice flat sedge (E) (rice flat sedge; 320 g/ha): 2 (Herbicidal rate of 20% or more and less than 40%)

Cc1ccc(-c2oc3ccc(F)cc3c2-c2c(O)c(C)nn(C)c2=O)cc1 [9-017]
Herbicidal effect on H (barnyard grass), foliage application (barnyard grass; [1]): 5 (Herbicidal rate of 90% or more (almost completely withered)) | Herbicidal effect on D (Chinese sprangletop), foliage application (Chinese sprangletop; [1]): 3 (Herbicidal rate of 40% or more and less than 70%) | Herbicidal effect on E (rice flat sedge), foliage application (rice flat sedge; [1]): 5 (Herbicidal rate of 90% or more (almost completely withered))

Cc1nn(C)c(=O)c(-c2c(-c3ccc(C(F)(F)F)cc3)oc3ccc(F)cc23)c1O [9-029]
Herbicidal effect on H (barnyard grass), foliage application (barnyard grass; [1]): 4 (Herbicidal rate of 70% or more and less than 90%) | Herbicidal effect on D (Chinese sprangletop), foliage application (Chinese sprangletop; [1]): 3 (Herbicidal rate of 40% or more and less than 70%) | Herbicidal effect on E (rice flat sedge), foliage application (rice flat sedge; [1]): 5 (Herbicidal rate of 90% or more (almost completely withered))
